Measured values from the NIST ThermoML archive (doi:10.1021/je800026p).

Experiment: xn = mol fraction of the nth substance listed
Conditions: 101 kPa, Liquid; for speed of sound: Sing-around technique in a fixed-path interferometer; for mass density: Vibrating tube method

CCCCCCOCCOCCO [2-(2-hexyloxyethoxy)ethanol] + CCCCNCCCC
Conditions	mass density, 288.15 K [kg/m3]	mass density, 293.15 K [kg/m3]	mass density, 298.15 K [kg/m3]	mass density, 303.15 K [kg/m3]	mass density, 308.15 K [kg/m3]	speed of sound, 288.15 K [m/s]	speed of sound, 293.15 K [m/s]	speed of sound, 298.15 K [m/s]	speed of sound, 303.15 K [m/s]	speed of sound, 308.15 K [m/s]
x1 = 0.0974	787.886	783.751	779.614	775.187	771.079	1301.4	1282.3	1262.9	1243.7	1225.3
x1 = 0.1441	798.114	793.988	789.859	785.667	781.545	1308.1	1289.2	1270.5	1251	1232.2
x1 = 0.1908	808.103	804	799.885	795.785	791.662	1314.8	1296	1277.8	1258.2	1239.2
x1 = 0.253	820.984	816.934	812.825	808.731	804.6	1323.5	1304.8	1287	1267.7	1248.7
x1 = 0.2986	830.092	826.059	821.948	817.838	813.671	1329.8	1311.2	1293.6	1274.5	1255.5
x1 = 0.3606	842	837.97	833.834	829.692	825.52	1338	1319.7	1302.1	1283.4	1264.8
x1 = 0.4018	849.578	845.585	841.423	837.274	833.078	1343.4	1325.2	1307.6	1289.3	1270.9
x1 = 0.4584	859.635	855.602	851.46	847.291	843.095	1350.4	1332.6	1315	1297	1279.1
x1 = 0.5091	868.247	864.218	860.074	855.914	851.724	1356.7	1339	1321.3	1303.8	1286.2
x1 = 0.5435	873.936	869.891	865.751	861.602	857.401	1360.8	1343.2	1325.7	1308.2	1290.8
x1 = 0.587	880.891	876.847	872.72	868.58	864.406	1365.8	1348.4	1330.9	1313.6	1296.5
x1 = 0.6097	884.459	880.409	876.278	872.165	867.972	1368.4	1351	1333.6	1316.4	1299.4
x1 = 0.6572	891.716	887.648	883.547	879.461	875.302	1373.6	1356.4	1339	1322	1305
x1 = 0.7023	898.412	894.343	890.259	886.201	882.052	1378.3	1361.3	1344.1	1327	1310.1
x1 = 0.7451	904.586	900.53	896.459	892.397	888.281	1382.7	1365.7	1348.6	1331.6	1314.5
x1 = 0.8144	914.195	910.151	906.103	902.062	897.98	1389.4	1372.4	1355.5	1338.5	1320.9
x1 = 0.8675	921.188	917.168	913.137	909.095	905.045	1394.2	1377.2	1360.3	1343.3	1325
x1 = 0.9083	926.329	922.317	918.3	914.27	910.231	1397.7	1380.6	1363.7	1346.8	1327.7
x1 = 0.9414	930.322	926.329	922.323	918.281	914.269	1400.4	1383.2	1366.2	1349.3	1329.5
